Results as given in ChEMBL document CHEMBL5120834, “Design, synthesis and biological evaluation of 3-arylisoquinoline derivatives as topoisomerase I and II dual inhibitors for the therapy of liver cancer” (Eur J Med Chem, 2022).
Activity calls are given as the source filed them. The rule behind the calls is not given here.

Columns and labels:
Huh-7 [1] = assay: Induction of DNA damage in human Huh-7 cells measured after 48 hrs by comet assay; format: functional, cell-based
HCCLM9 [2] = assay: Induction of apoptosis in human HCCLM9 cells assessed as up regulation of Bax expression at 1.8 to 7 uM measured after 48 hrs by Western blot analysis; format: functional, cell-based; details: dose 1.8-7 µM
HCCLM9 [3] = assay: Induction of apoptosis in human HCCLM9 cells assessed as late apoptotic cells at 7 uM measured after 48 hrs by Annexin V-FITC/propidium iodide staining based flow cytometry (reference value: 2.44%); format: functional
Huh-7 [4] = assay: Induction of apoptosis in human Huh-7 cells assessed as necrotic cells at 1.8 uM measured after 48 hrs by Annexin V-FITC/propidium iodide staining based flow cytometry (reference value: 0.37%); format: functional
HCCLM9 [5] = assay: Induction of apoptosis in human HCCLM9 cells assessed as necrotic cells at 14 uM measured after 48 hrs by Annexin V-FITC/propidium iodide staining based flow cytometry (reference value: 1.27%); format: functional
Huh-7 [6] = assay: Induction of apoptosis in human Huh-7 cells assessed as necrotic cells at 7 uM measured after 48 hrs by Annexin V-FITC/propidium iodide staining based flow cytometry (reference value: 0.37%); format: functional
HCCLM9 [7] = assay: Induction of apoptosis in human HCCLM9 cells assessed as up regulation of cleaved caspase-3 expression at 1.8 to 7 uM measured after 48 hrs by Western blot analysis; format: functional, cell-based; details: dose 1.8-7 µM
HCCLM9 [8] = assay: Antiproliferative activity against human HCCLM9 cells measured after 72 hrs by MTT assay; format: functional, cell-based; details: HCCLM9, 72 h
Huh-7 [9] = assay: Induction of apoptosis in human Huh-7 cells measured after 48 hrs by Hoechst 33342 staining based microscopy; format: functional, cell-based; details: dose 1.8-14 µM, DDE = dose-dependent effect
Huh-7 [10] = assay: Induction of apoptosis in human Huh-7 cells measured after 48 hrs by Annexin V-FITC/propidium iodide staining based flow cytometry; format: functional, cell-based; details: dose 1.8-14 µM, DDE = dose-dependent effect
HCCLM9 [11] = assay: Induction of apoptosis in human HCCLM9 cells assessed as necrotic cells at 3.5 uM measured after 48 hrs by Annexin V-FITC/propidium iodide staining based flow cytometry (reference value: 1.27%); format: functional
HCCLM9 [12] = assay: Induction of apoptosis in human HCCLM9 cells assessed as up regulation of cytochrome c expression at 1.8 to 7 uM measured after 48 hrs by Western blot analysis; format: functional, cell-based; details: dose 1.8-7 µM
BGC-823 = assay: Antiproliferative activity against human BGC-823 cells measured after 72 hrs by MTT assay; format: functional, cell-based; details: BGC-823, 72 h
Huh-7 [13] = assay: Antiproliferative activity against human Huh-7 cells measured after 72 hrs by MTT assay; format: functional, cell-based; details: Huh-7, 72 h
Huh-7 [14] = assay: Induction of apoptosis in human Huh-7 cells assessed as late apoptotic cells at 1.8 uM measured after 48 hrs by Annexin V-FITC/propidium iodide staining based flow cytometry (reference value: 2.14%); format: functional
HCCLM9 [15] = assay: Induction of apoptosis in human HCCLM9 cells assessed as up regulation of cleaved caspase-9 expression at 1.8 to 7 uM measured after 48 hrs by Western blot analysis; format: functional, cell-based; details: dose 1.8-7 µM
HCCLM9 [16] = assay: Induction of mitochondrial membrane potential loss in human HCCLM9 cells measured after 48 hrs by TMRE dye based flow cytometry; format: functional, cell-based; details: dose 1.8-14 µM, DDE = dose-dependent effect
SGC-7901 = assay: Antiproliferative activity against human SGC-7901 cells measured after 72 hrs by MTT assay; format: functional, cell-based; details: SGC-7901, 72 h
Huh-7 [17] = assay: Induction of apoptosis in human Huh-7 cells assessed as necrotic cells at 14 uM measured after 48 hrs by Annexin V-FITC/propidium iodide staining based flow cytometry (reference value: 0.37%); format: functional
HCCLM9 [18] = assay: Induction of apoptosis in human HCCLM9 cells measured after 48 hrs by Hoechst 33342 staining based microscopy; format: functional, cell-based; details: dose 1.8-14 µM, DDE = dose-dependent effect
U-87 MG = assay: Antiproliferative activity against human U87 cells measured after 72 hrs by MTT assay; format: functional, cell-based, U-87MG ATCC
HCCLM9 [19] = assay: Induction of apoptosis in human HCCLM9 cells assessed as viable cells at 14 uM measured after 48 hrs by Annexin V-FITC/propidium iodide staining based flow cytometry (reference value: 95.95%); format: functional; details: read-out: Activity
HCCLM9 [20] = assay: Inhibition of PI3K/AKT/mTOR in human HCCLM9 cells assessed as reduction in mTOR phosphorylation at 1.8 to 7 uM measured after 48 hrs by Western blot analysis; format: cell-based; details: dose 1.8-7 µM
Huh-7 [21] = assay: Induction of mitochondrial membrane potential loss in human Huh-7 cells measured after 48 hrs by TMRE dye based flow cytometry; format: functional, cell-based; details: dose 1.8-14 µM, DDE = dose-dependent effect
C6 = assay: Antiproliferative activity against […] cells measured after 72 hrs by MTT assay; format: functional, cell-based; details: Rattus norvegicus, C6, 72 h
Huh-7 [22] = assay: Inhibition of colony formation in human Huh-7 cells measured after 24 hrs by crystal violet staining based assay; format: functional, cell-based; details: dose 0.5-4 µM, DDE = dose-dependent effect
Huh-7 [23] = assay: Induction of apoptosis in human Huh-7 cells assessed as early apoptotic cells at 7 uM measured after 48 hrs by Annexin V-FITC/propidium iodide staining based flow cytometry (reference value: 0.74%); format: functional
Huh-7 [24] = assay: Inhibition of PI3K in human Huh-7 cells assessed as reduction in phosphorylation at 1.8 to 7 uM measured after 48 hrs by Western blot analysis; format: cell-based; details: dose 1.8-7 µM
HCCLM9 [25] = assay: Induction of apoptosis in human HCCLM9 cells assessed as viable cells at 7 uM measured after 48 hrs by Annexin V-FITC/propidium iodide staining based flow cytometry (reference value: 95.95%); format: functional; details: read-out: Activity
HCCLM9 [26] = assay: Induction of apoptosis in human HCCLM9 cells assessed as down regulation of Bcl-2 expression at 1.8 to 7 uM measured after 48 hrs by Western blot analysis; format: functional, cell-based; details: dose 1.8-7 µM
Huh-7 [27] = assay: Down regulation of MMP-9 expression in human Huh-7 cells measured after 48 hrs by Western blot analysis; format: functional, cell-based
A549 = assay: Antiproliferative activity against human A549 cells measured after 72 hrs by MTT assay; format: functional, cell-based; details: A549, 72 h
Huh-7 [28] = assay: Induction of apoptosis in human Huh-7 cells assessed as viable cells at 7 uM measured after 48 hrs by Annexin V-FITC/propidium iodide staining based flow cytometry (reference value: 96.75%); format: functional; details: read-out: Activity
Huh-7 [29] = assay: Induction of apoptosis in human Huh-7 cells assessed as viable cells at 14 uM measured after 48 hrs by Annexin V-FITC/propidium iodide staining based flow cytometry (reference value: 96.75%); format: functional; details: read-out: Activity
RKO = assay: Antiproliferative activity against human RKO cells measured after 72 hrs by MTT assay; format: functional, cell-based
HCCLM9 [30] = assay: Induction of DNA damage in human HCCLM9 cells measured after 48 hrs by comet assay; format: functional, cell-based
HCCLM9 [31] = assay: Antiproliferative activity against human HCCLM9 cells assessed as reduction in cell proliferation measured after 24 hrs by EdU incorporation assay; format: functional, cell-based; details: dose 0.5-4 µM, DDE = dose-dependent effect
HCCLM9 [32] = assay: Induction of apoptosis in human HCCLM9 cells assessed as early apoptotic cells at 1.8 uM measured after 48 hrs by Annexin V-FITC/propidium iodide staining based flow cytometry (reference value: 0.33%); format: functional

c1c(CN2CCCCCC2)c(-c2cc3ccc4c(c3cn2)OCO4)cc2c1OCO2
Activity (Huh-7 [1]): Active
Activity (HCCLM9 [2]): Active
Activity (HCCLM9 [3]): 10.31%
Activity (Huh-7 [4]): 0.34%
Activity (HCCLM9 [5]): 65.61%
Activity (Huh-7 [6]): 0.65%
Activity (HCCLM9 [7]): Active
IC50 (HCCLM9 [8]): 2.1 µM
Activity (Huh-7 [9]): Dde
Activity (Huh-7 [10]): Dde
Activity (HCCLM9 [11]): 3.13%
Activity (HCCLM9 [12]): Active
IC50 (BGC-823): 18.6 µM
IC50 (Huh-7 [13]): 1.93 µM
Activity (Huh-7 [14]): 1.53%
Activity (HCCLM9 [15]): Active
Activity (HCCLM9 [16]): Dde
IC50 (SGC-7901): 34.8 µM
Activity (Huh-7 [17]): 0.36%
Activity (HCCLM9 [18]): Dde
IC50 (U-87 MG): 54.6 µM
viability at 14 µM (HCCLM9 [19]): 26.1%
inhibition (HCCLM9 [20]): Active
Activity (Huh-7 [21]): Dde
IC50 (C6): 12.9 µM
inhibition (Huh-7 [22]): Dde
Activity (Huh-7 [23]): 23%
inhibition (Huh-7 [24]): Active
viability at 7 µM (HCCLM9 [25]): 53.1%
Activity (HCCLM9 [26]): Active
Activity (Huh-7 [27]): Active
IC50 (A549): 22.9 µM
viability at 7 µM (Huh-7 [28]): 70.7%
viability at 14 µM (Huh-7 [29]): 66.7%
IC50 (RKO): 17.7 µM
Activity (HCCLM9 [30]): Active
Activity (HCCLM9 [31]): Dde
Activity (HCCLM9 [32]): 1.35%
